Source: publication PMC4411398 (Science signaling, 2012)

Columns and labels:
Format in all cases: biochemical
GC-A = target: T1, GC-A (Rattus norvegicus, UniProt P18910); assay: GC assay; conditions: for increase of ANP-stimulated GC-A activity by adenine nucleotide: saturating ANP; for EC50: EC50 for activation
T1 sequence (P18910 29-1057): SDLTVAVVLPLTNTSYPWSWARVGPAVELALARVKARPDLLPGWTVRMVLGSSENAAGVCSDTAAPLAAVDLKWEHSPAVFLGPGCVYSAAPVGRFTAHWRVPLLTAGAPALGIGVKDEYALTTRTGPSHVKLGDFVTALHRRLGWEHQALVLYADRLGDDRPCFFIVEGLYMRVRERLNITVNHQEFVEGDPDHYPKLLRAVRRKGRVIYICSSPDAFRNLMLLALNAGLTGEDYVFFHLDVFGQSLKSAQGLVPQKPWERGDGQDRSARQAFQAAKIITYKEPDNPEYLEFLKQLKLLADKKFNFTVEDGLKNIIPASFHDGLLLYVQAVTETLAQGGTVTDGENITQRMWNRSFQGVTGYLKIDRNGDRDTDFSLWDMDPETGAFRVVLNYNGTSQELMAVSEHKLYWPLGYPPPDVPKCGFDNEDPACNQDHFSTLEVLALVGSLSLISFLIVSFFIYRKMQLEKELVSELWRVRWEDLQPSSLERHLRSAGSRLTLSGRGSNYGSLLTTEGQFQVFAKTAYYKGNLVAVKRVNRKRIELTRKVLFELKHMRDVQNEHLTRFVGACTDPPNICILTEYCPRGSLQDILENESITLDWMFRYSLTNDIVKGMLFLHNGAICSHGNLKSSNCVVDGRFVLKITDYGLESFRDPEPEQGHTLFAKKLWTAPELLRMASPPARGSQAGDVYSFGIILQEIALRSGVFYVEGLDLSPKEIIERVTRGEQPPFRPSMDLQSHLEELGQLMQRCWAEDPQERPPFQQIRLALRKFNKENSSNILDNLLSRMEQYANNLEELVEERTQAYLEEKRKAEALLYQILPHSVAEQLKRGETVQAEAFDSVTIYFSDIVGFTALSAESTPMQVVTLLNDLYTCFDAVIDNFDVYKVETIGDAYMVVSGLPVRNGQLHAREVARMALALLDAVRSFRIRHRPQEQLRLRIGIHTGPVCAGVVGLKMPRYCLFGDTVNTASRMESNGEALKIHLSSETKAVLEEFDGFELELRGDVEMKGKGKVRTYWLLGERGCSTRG
T1 sequence (P01161 123-150 partner limits assumed): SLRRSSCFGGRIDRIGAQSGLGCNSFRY

GC-B = GC-B (Rattus norvegicus, UniProt P16067); assay: GC assay
endogenous GC-B = endogenous GC-B (Mus musculus, UniProt Q6VVW5); assay: GC assay in crude membranes from NIH 3T3 cells; conditions: 125 nM CNP, 0.1 mM GTP
[1] = 1 μM ANP, 9 min, nucleotide at 1 mM
[2] = NP-stimulated, 9 min, 10 μM ATP
[3] = NP-stimulated, 9 min, 100 μM ATP
[4] = CNP-stimulated, presence of ATP
[5] = NP-stimulated, 9 min, 750 μM ATP
[6] = presence of CNP, absence of ATP, increasing Mg2+GTP

Sequence of GC-B (P16067 17-1047): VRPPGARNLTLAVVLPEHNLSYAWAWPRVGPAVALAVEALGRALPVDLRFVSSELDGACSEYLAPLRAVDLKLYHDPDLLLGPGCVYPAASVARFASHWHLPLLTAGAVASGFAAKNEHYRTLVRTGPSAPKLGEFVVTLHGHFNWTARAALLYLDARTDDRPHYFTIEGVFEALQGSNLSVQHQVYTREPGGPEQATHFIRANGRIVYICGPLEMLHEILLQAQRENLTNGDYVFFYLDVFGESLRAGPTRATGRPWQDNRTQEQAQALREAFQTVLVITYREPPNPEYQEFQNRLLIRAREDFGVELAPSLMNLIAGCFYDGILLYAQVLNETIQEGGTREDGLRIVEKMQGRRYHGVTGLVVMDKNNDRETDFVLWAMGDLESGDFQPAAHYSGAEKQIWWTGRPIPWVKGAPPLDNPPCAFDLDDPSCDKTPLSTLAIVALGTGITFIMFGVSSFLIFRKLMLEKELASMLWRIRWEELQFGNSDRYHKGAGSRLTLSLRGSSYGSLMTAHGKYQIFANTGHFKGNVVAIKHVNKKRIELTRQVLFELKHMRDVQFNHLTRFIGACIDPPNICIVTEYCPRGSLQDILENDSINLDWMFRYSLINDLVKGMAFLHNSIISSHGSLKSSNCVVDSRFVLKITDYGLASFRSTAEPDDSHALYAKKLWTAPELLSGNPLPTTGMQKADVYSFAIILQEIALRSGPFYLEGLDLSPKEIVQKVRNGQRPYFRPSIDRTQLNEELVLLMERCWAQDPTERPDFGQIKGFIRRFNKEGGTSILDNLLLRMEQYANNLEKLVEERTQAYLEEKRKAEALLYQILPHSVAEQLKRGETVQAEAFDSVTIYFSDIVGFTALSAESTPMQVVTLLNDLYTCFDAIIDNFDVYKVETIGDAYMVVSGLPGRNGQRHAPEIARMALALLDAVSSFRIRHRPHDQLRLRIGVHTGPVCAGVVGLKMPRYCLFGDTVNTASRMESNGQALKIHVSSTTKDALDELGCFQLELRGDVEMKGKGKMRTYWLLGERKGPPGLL
Sequence of GC-B (P55207 105-126 partner limits assumed): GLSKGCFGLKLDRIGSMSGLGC
Sequence of endogenous GC-B (Q6VVW5 17-1047): as the sequence (P16067 17-1047) above, with H100R, T188A, E385D, I449V, R1024Q counted along it

Molecule: Nc1ncnc2c1ncn2[C@H]1C[C@H](O)[C@@H](COP(=O)(O)OP(=O)(O)OP(=O)(O)O)O1 [2′-deoxy-ATP]
- Hill coefficient (GC-A; [1]): 1.2 ± 0.24
- Km (GC-A; [1]): 400 ± 80 µM
- activation of GC-A compared with ATP (GC-A; single-substrate concentration GC assays, 0.1 mM GTP, ANP): poorer activator of GC-A than was ATP

Molecule: Nc1ncnc2c1ncn2[C@@H]1O[C@H](CO)[C@@H](O)[C@H]1O [adenosine]
- increase of ANP-stimulated GC-A activity by adenine nucleotide (GC-A; 0.1 mM GTP): failed to increase activity

Molecule: Nc1ncnc2c1ncn2[C@@H]1O[C@H](COP(=O)(O)OP(=O)(O)OP(=O)(O)O)[C@@H](O)[C@H]1O [ATP, adenosine triphosphate]
- Km (GC-A; [1]): 100 ± 20 µM
- EC50 (GC-A; NP-stimulated, 0.1 mM GTP): 77 µM
- EC50 (GC-A; NP-stimulated, 0.3 mM GTP): 38 µM
- EC50 (GC-A; NP-stimulated, 0.9 mM GTP): 38 µM
- EC50 (GC-A; NP-stimulated, 5.4 mM GTP): 16 µM
- Km (GC-A; NP-activated receptor, presence of ATP): ~100 µM
- Hill coefficient (GC-A; [2]): 1.2 ± 0.08
- Hill coefficient (GC-A; [3]): 0.9 ± 0.07
- Michaelis constant (GC-A; [3]): 0.08 ± 0.010 mM
- S0.5 (GC-B; [4]): 0.09 ± 0.02 mM
- Vmax (GC-B; [4]): 41 ± 3.1 nmol mg^−1 (9 min)^−1
- EC50 (GC-B; EC50 for ATP activation, approximate value stated in the discussion): ~100 µM
- EC50 (GC-B; EC50 for activation, NP-stimulated, 0.1 mM GTP): 40 µM
- EC50 (GC-B; EC50 for activation, NP-stimulated, 0.3 mM GTP): 26 µM
- EC50 (GC-B; EC50 for activation, NP-stimulated, 0.9 mM GTP): 16 µM
- EC50 (GC-B; EC50 for activation, NP-stimulated, 5.4 mM GTP): 19 µM
- Hill coefficient (GC-B; [2]): 0.9 ± 0.13
- Michaelis constant (GC-B; [2]): 0.4 ± 0.11 mM
- Hill coefficient (GC-B; [5]): 0.9 ± 0.24
- Michaelis constant (GC-B; [5]): 0.2 ± 0.18 mM
- Hill coefficient (GC-B; absence of NPs, presence of ATP): 1.1
- S0.5 (GC-B; basal (no NP), presence of ATP): 1.0 ± 0.15 mM
- Vmax (GC-B; basal (no NP), presence of ATP): 4 ± 0.3 nmol mg^−1 (9 min)^−1

Molecule: Nc1ncnc2c1ncn2[C@@H]1O[C@H](COP(=O)(O)O)[C@@H](O)[C@H]1O [AMP, adenosine monophosphate]
- increase of ANP-stimulated GC-A activity by adenine nucleotide (GC-A; 0.1 mM GTP): failed to increase activity

Molecule: Nc1ncnc2c1ncn2[C@@H]1O[C@H](COP(=O)(O)OP(=O)(O)O)[C@@H](O)[C@H]1O [ADP, adenosine diphosphate]
- Hill coefficient (GC-A; [1]): 1.1 ± 0.18
- Km (GC-A; [1]): 200 ± 40 µM

Molecule: C-type natriuretic peptide [CNP]
- increase of GC-B activity (endogenous GC-B; absence of ATP): no statistically significant increase in activity
- increase of GC-B activity (endogenous GC-B; presence of 1 mM ATP): more than fourfold
- increase of maximal velocity (GC-B; absence of ATP): 13 fold
- S0.5 (GC-B; [6]): 1.0 ± 0.15 mM
- Vmax (GC-B; [6]): 49 ± 3.7 nmol mg^−1 (9 min)^−1
